Test results from patent US9302991B2, “Arylamide derivatives as TTX-S blockers” (RaQualia Pharma Inc., priority 2010, dated 2016).

Biological target: T1, human Nav1.7 channels (Homo sapiens, UniProt Q15858)
T1 construct: expressed in transfected cells; host or cells: CHO
Test: FRET assay, human Nav1.7 (EFS on FDSS)
Format: cell-based
Settings: CHO cells expressing human Nav1.7, read-out: IC50 against Nav1.7
How it was run: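 CHO cells stably expressing the channel, loaded with CC2-DMPE (10 µM) then DiSBAC2(3) (15 µM) plus VABSC-1, in HEPES-buffered saline pH 7.4 at room temperature. Electrical field stimulation on FDSS; FRET ratio at 440 nm fitted for IC50.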

T1 sequence (Q15858 whole entry): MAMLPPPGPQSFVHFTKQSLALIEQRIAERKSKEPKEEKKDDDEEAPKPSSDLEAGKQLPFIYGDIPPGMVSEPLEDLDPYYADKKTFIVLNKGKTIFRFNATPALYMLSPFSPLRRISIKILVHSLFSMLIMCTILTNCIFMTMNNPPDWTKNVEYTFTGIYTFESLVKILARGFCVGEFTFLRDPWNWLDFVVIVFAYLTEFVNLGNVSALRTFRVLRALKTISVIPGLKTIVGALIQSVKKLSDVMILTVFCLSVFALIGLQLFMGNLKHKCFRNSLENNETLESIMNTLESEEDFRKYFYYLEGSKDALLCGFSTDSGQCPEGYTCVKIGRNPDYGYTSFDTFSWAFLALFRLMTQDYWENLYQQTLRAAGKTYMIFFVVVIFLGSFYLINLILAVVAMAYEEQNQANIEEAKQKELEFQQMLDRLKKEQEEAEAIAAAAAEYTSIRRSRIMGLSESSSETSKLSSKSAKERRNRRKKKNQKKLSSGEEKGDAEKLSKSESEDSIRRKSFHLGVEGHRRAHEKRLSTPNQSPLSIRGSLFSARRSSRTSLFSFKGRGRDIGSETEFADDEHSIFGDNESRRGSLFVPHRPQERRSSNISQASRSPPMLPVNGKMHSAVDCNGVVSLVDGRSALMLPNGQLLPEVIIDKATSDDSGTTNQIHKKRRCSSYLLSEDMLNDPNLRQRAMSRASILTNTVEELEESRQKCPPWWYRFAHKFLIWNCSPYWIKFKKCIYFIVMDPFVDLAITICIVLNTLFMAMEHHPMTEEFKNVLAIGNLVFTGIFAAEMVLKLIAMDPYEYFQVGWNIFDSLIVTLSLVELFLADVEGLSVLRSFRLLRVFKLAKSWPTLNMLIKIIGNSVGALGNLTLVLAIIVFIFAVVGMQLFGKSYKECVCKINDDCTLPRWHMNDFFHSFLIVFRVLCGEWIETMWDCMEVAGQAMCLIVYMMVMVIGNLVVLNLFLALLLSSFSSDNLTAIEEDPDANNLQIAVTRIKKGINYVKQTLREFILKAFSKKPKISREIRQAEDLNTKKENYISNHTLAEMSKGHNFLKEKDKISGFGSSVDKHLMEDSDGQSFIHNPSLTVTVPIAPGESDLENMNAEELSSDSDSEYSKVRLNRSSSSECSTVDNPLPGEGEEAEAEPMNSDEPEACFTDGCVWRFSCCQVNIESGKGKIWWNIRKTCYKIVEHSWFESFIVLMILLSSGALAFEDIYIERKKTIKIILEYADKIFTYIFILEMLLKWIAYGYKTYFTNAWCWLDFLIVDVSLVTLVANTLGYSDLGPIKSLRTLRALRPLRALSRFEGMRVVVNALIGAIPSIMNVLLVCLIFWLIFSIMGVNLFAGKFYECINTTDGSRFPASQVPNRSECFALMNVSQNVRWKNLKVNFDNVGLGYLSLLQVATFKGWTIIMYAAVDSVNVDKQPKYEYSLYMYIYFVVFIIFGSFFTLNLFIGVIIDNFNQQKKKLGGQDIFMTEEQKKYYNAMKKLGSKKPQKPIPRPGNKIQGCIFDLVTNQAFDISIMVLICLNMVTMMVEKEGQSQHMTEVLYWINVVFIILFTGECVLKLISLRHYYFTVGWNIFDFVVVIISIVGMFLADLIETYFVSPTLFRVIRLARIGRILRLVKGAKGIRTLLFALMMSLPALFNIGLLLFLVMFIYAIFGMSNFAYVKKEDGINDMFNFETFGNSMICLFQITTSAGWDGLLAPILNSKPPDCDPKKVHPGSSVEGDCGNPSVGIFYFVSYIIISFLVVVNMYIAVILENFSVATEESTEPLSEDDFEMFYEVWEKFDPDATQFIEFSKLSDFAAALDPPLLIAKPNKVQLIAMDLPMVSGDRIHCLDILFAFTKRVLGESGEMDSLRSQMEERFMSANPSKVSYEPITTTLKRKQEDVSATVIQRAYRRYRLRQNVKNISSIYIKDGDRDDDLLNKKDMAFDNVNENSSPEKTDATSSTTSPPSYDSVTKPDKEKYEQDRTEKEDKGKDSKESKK

IC50, < 1000 nM:
COc1nc(OCC(F)F)ccc1CNC(=O)c1ccnc(NC(=O)C2CC2)c1 [Example 1153, 2-(cyclopropanecarboxamido)-N-((6-(2,2-difluoroethoxy)-2-methoxypyridin-3-yl)methyl)isonicotinamide]
Cc1cc(C(=O)NCc2ccc(OCC(F)F)c(C)c2)nc(NC(=O)C2CC2)n1 [Example 996, 2-(cyclopropanecarboxamido)-N-(4-(2,2-difluoroethoxy)-3-methylbenzyl)-6-methylpyrimidine-4-carboxamide]
CC(C)C(=O)Nc1cc(C(=O)NCc2ccc(OCC(F)(F)F)nc2N2CCCCC2)ccn1 [Example 305, 2-isobutyramido-N-((2-(piperidin-1-yl)-6-(2,2,2-trifluoroethoxy)pyridin-3-yl)methyl)isonicotinamide]
Cc1cc(C(=O)NC(C)c2ccc(OCC(F)F)c(Cl)c2)cc(NC(=O)C(C)C)n1 (single isomer, unassigned) [Example 1101, N-(1-(3-chloro-4-(2,2-difluoroethoxy)phenyl)ethl)-2-isobutyramido-6-methylisonicotinamide]
CCC(=O)Nc1cc(C(=O)NC(C)c2ccc(OCC(F)F)cc2Cl)ccn1 (single isomer, unassigned) [Example 1116, N-(1-(2-chloro-4-(2,2-difluoroethoxy)phenyl)ethyl)-2-propionamidoisonicotinamide]
Cc1cc(C(C)NC(=O)c2ccnc(NC(=O)C(C)C)c2)ccc1OCC(F)F (single isomer, unassigned) [Example 862, N-(1-(4-(2,2-difluoroethoxy)-3-methylphenyl)ethyl)-2-isobutyramidoisonicotinamide]
Cc1cc(CNC(=O)c2ccnc(NC(=O)C(C)C)c2)ccc1OCC(F)F [Example 991, N-(4-(2,2-difluoroethoxy)-3-methylbenzyl)-2-isobutyramidoisonicotinamide]
COc1nc(OCC(F)F)ccc1CNC(=O)c1ccnc(NC(=O)C(C)C)c1 [Example 1154, N-((6-(2,2-difluoroethoxy)-2-methoxypyridin-3-yl)methyl)-2-isobutyramidoisonicotinamide]
CC(C)C(=O)Nc1cc(C(=O)NCc2ccc(OCC(F)(F)F)nc2N2CCOCC2)ccn1 [Example 282, 2-isobutyramido-N-((2-morpholino-6-(2,2,2-trifluoroethoxy)pyridin-3-yl)methyl)isonicotinamide]
CCC(=O)Nc1cc(C(=O)NC(C)c2ccc(OC(F)(F)F)cc2)cc(C)n1 (single isomer, unassigned) [Example 135, 2-methyl-6-propionamido-N-(1-(4-(trifluoromethoxy)phenyl)ethyl)isonicotinamide]
CC(=O)Nc1cc(C(=O)NC(C)c2ccc(OCC(F)(F)F)cc2Cl)cc(C)n1 (single isomer, unassigned) [Example 800, 2-acetamido-N-(1-(2-chloro-4-(2,2,2-trifluoroethoxy)phenyl)ethyl)-6-methylisonicotinamide]
Cc1cc(C(=O)NC(C)c2cc(C)c(OCC(F)F)c(Cl)c2)cc(NC(=O)C(C)C)n1 (single isomer, unassigned) [Example 1212, N-(1-(3-chloro-4-(2,2-difluoroethoxy)-5-methylphenyl)ethyl)-2-isobutyramido-6-methylisonicotinamide]
CC(NC(=O)c1ccnc(NC(=O)C2CC2)c1)c1ccc(OCCC(F)(F)F)nc1 (single isomer, unassigned) [Example 116, 2-(cyclopropanecarboxamido)-N-(1-(6-(3,3,3-trifluoropropoxy)pyridin-3-yl)ethyl)isonicotinamide]
Cc1cc(C(=O)NC(C)c2cnc(OCC(F)F)c(C)c2)cc(NC(=O)C2CC2)n1 (single isomer, unassigned) [Example 938, 2-(cyclopropanecarboxamido)-N-(1-(6-(2,2-difluoroethoxy)-5-methylpyridin-3-yl)ethyl)-6-methylisonicotinamide]
CC(=O)Nc1cc(C(=O)N(C)C(C)c2cnc(OCC(F)(F)F)c(C)c2)cc(C)n1 (single isomer, unassigned) [Example 391, 2-acetamido-N,6-dimethyl-N-(1-(5-methyl-6-(2,2,2-trifluoroethoxy)pyridin-3-yl)ethyl)isonicotinamide]
COc1cc(CNC(=O)c2ccnc(NC(=O)C3CC3)c2)ccc1OCC(F)(F)F [Example 1102, 2-(cyclopropanecarboxamido)-N-(3-methoxy-4-(2,2,2-trifluoroethoxy)benzyl)isonicotinamide]
COc1nc(OCC(F)F)ccc1C(C)NC(=O)c1ccnc(NC(=O)C(C)C)c1 (single isomer, unassigned) [Example 1163, N-(1-(6-(2,2-difluoroethoxy)-2-methoxypyridin-3-yl)ethyl)-2-isobutyramidoisonicotinamide]
Cc1cc(C(=O)NC(C)c2cnc(OCC(F)(F)F)c(F)c2)cc(NC(=O)C(C)C)n1 (single isomer, unassigned) [Example 486, N-(1-(5-fluoro-6-(2,2,2-trifluoroethoxy)pyridin-3-yl)ethyl)-2-isobutyramido-6-methylisonicotinamide]
CCC(=O)Nc1cc(C(=O)NCc2ccc(O[C@H](C)C(F)(F)F)nc2)ccn1 (single isomer, unassigned) [Example 316]
CC(=O)Nc1cc(C(=O)NC(C)c2ccc(OCC(F)(F)F)cc2Cl)ccn1 (single isomer, unassigned) [Example 796, 2-acetamido-N-(1-(2-chloro-4-(2,2,2-trifluoroethoxy)phenyl)ethyl)isonicotinamide]
Cc1cc(OCC(F)(F)F)ncc1CNC(=O)c1ccnc(NC(=O)C(C)C)c1 [Example 178, 2-isobutyramido-N-((4-methyl-6-(2,2,2-trifluoroethoxy)pyridin-3-yl)methyl)isonicotinamide]
Cc1nc(OCC(F)(F)F)c(F)cc1CNC(=O)c1ccnc(NC(=O)C(C)C)c1 [Example 314, N-((5-fluoro-2-methyl-6-(2,2,2-trifluoroethoxy)pyridin-3-yl)methyl)-2-isobutyramidoisonicotinamide]
Cc1cc(C(=O)NCc2ccc(OCCC(F)(F)F)nc2)cc(NC(=O)C(C)C)n1 [Example 490, 2-isobutyramido-6-methyl-N-((6-(3,3,3-trifluoropropoxy)pyridin-3-yl)methyl)isonicotinamide]
CC(=O)Nc1cc(C(=O)NC(C)c2cc(C(F)(F)F)ccc2F)cc(C)n1 (single isomer, unassigned) [Example 981, 2-acetamido-N-(1-(2-fluoro-5-(trifluoromethyl)phenyl)ethyl)-6-methyl-isonicotinamide]
O=C(NCc1ccc(OCC(F)(F)F)nc1N1CCCCC1)c1ccnc(NC(=O)C2CC2)c1 [Example 304, 2-(cyclopropanecarboxamido)-N-((2-(piperidin-1-yl)-6-(2,2,2-trifluoroethoxy)pyridin-3-yl)methyl)isonicotinamide]
Cc1cc(C(=O)NC(C)c2cccc(SC(F)(F)F)c2)cc(NC(=O)C(C)C)n1 (single isomer, unassigned) [Example 1032, 2-isobutyramido-6-methyl-N-(1-(3-((trifluoromethyl)thio)phenyl)ethyl)isonicotinamide]
Cc1cc(C(C)NC(=O)c2ccnc(NC(=O)C(C)C)c2)cc(Cl)c1OCC(F)F (single isomer, unassigned) [Example 1210, N-(1-(3-chloro-4-(2,2-difluoroethoxy)-5-methylphenyl)ethyl)-2-isobutyramidoisonicotinamide]
CC(=O)Nc1cc(C(=O)NCc2cccc(OCC(F)(F)F)n2)ccn1 [Example 22, 2-acetamido-N-((6-(2,2,2-trifluoroethoxy)pyridin-2-yl)methyl)isonicotinamide]
CC(C)C(=O)Nc1cc(C(=O)NCc2cnc(OCC(F)(F)F)c(Br)c2)ccn1 [Example 897, N-((5-bromo-6-(2,2,2-trifluoroethoxy)pyridin-3-yl)methyl)-2-isobutyramidoisonicotinamide]
CCC(=O)Nc1cc(C(=O)NC(CC)c2ccc(OCC(F)(F)F)nc2)cc(C)n1 (single isomer, unassigned) [Example 133, 2-methyl-6-propionamido-N-(1-(6-(2,2,2-trifluoroethoxy)pyridin-3-yl)propyl)isonicotinamide]
CCc1cc(CNC(=O)c2ccnc(NC(=O)C(C)C)c2)cnc1OCC(F)F [Example 910, N-((6-(2,2-difluoroethoxy)-5-ethylpyridin-3-yl)methyl)-2-isobutyramidoisonicotinamide]
CC(=O)Nc1cc(C(=O)NCc2cc(F)c(OCC(F)(F)F)nc2C)cc(C)n1 [Example 312, 2-acetamido-N-((5-fluoro-2-methyl-6-(2,2,2-trifluoroethoxy)pyridin-3-yl)methyl)-6-methylisonicotinamide]
COc1cc(CNC(=O)c2ccnc(NC(C)=O)c2)ccc1OCC(F)(F)F [Example 1078, 2-acetamido-N-(3-methoxy-4-(2,2,2-trifluoroethoxy)benzyl)isonicotinamide]
CC(=O)Nc1cc(C(=O)NCc2ccc(OCC(F)F)cc2C)cc(C)n1 [Example 1007, 2-acetamido-N-(4-(2,2-difluoroethoxy)-2-methylbenzyl)-6-methylisonicotinamide]
O=C(NCc1ccc(OCC(F)(F)C(F)F)nc1)c1ccnc(NC(=O)C2CC2)c1 [Example 635, 2-(cyclopropanecarboxamido)-N-((6-(2,2,3,3-tetrafluoropropoxy)pyridin-3-yl)methyl)isonicotinamide]
